Counter-ions that a name gives are not always drawn.
Target: T1, TAFIa (purified human TAFI activated by thrombin-thrombomodulin complex) (Homo sapiens, UniProt Q96IY4)
T1 construct: purchased American Diagnostica TAFI Activity Kit (catalogue number not given)
T1 sequence (Q96IY4 115-423): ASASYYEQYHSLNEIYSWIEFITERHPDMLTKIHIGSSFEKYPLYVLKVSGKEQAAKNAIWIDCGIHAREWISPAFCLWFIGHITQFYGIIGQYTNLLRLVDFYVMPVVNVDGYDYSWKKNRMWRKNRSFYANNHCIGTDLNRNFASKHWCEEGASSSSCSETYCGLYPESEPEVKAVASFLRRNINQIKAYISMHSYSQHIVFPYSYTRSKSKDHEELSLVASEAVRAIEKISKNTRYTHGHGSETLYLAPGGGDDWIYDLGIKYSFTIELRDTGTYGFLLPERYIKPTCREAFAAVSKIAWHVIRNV
Test: Inhibition of TAFIa (chromogenic substrate, TAFI Activity Kit)
Assay type: biochemical
Conditions: 3.2 nM TAFIa; compound incubated 5 minutes at 20° C., chromogenic substrate 30 minutes at 37° C., OD at 490 nm; read-out: IC50 (concentration which inhibits 50% of the enzymatic activity of TAFIa)
Experimental: Purified human TAFI (25 ng) is activated by adding thrombin-thrombomodulin complex in the presence of calcium chloride. After incubating for 20 minutes at 20° C., the reaction is stopped by adding the irreversible thrombin inhibitor PPACK (TAFI Activity Kit, American Diagnostica).
The compound under test is added to the (3.2 nM) TAFIa solution and incubated for 5 minutes at 20° C. A chromogenic TAFIa substrate is added and then incubated for 30 minutes at 37° C. The enzymatic reaction is stopped by adding sulphuric acid (TAFI Activity Kit, American Diagnostica). The optical density (OD) of the solution is measured at 490 nm with the aid of a spectrophotometer (Spectramax, Molecular Devices). The OD value of a well containing the reagents without the TAFI is subtracted from each of the OD values measured. The percentage inhibition of TAFIa at a given concentration of the compound under test is determined using the following formula: % inhibition=100−[(OD of compound×100)/OD of carrier]
The concentration of compound of the invention which inhibits 50% of the enzymatic activity of TAFIa (IC50) is calculated from the inhibition percentages of the OD values measured for increasing concentrations of the compound under test using non-linear regression according to a sigmoidal four-parameter equation (effect-dose).

IC50 [nM]	Compound
81 ± 16	NCCCC[C@]1(C(=O)O)CCC[C@H]1S (single isomer, unassigned; enantiomer 2) [Example 10, 1-(4-Aminobutyl)-2-mercaptocyclopentanecarboxylic acid trifluoroacetate (cis diastereoisomer, enantiomer 2)]
6.7 ± 0.6	NCCC[C@@]1(C(=O)O)CCC[C@@H]1S [Example 1, (1R,2S)-1-(3-Aminopropyl)-2-mercaptocyclopentanecarboxylic acid trifluoroacetate]
184 ± 22	O=C(O)[C@@]1(CC2CCNCC2)CCC[C@H]1S (single isomer, unassigned) [Example 13, 2-Mercapto-1-(piperidin-4-ylmethyl)-cyclopentanecarboxylic acid trifluoroacetate (racemic cis diastereoisomer)]
178 ± 11	NCCCCC1(C(=O)O)CCCC1S (single isomer, unassigned) [Example 8, 1-(4-Aminobutyl)-2-mercaptocyclopentanecarboxylic acid trifluoroacetate (racemic cis diastereoisomer)]
7.4 ± 1.1	NCCC[C@@]1(C(=O)O)CCC[C@@H]1S [Example 3, (1R,2S)-1-(3-Aminopropyl)-2-mercaptocyclopentanecarboxylic acid hydrochloride]
186 ± 26	NCCC[C@@]1(C(=O)O)CCC[C@@H]1SS[C@H]1CCC[C@@]1(CCCN)C(=O)O [Example 20, (1R,2S,1′R,2′S)-2,2′-Disulphanediylbis[1-(3-aminopropyl)cyclopentane-carboxylic acid]dihydrochloride]
22 ± 6	CC(=O)S[C@H]1CCC[C@@]1(CCCN)C(=O)O [Example 2, (1R,2S)-2-Acetylthio-1-(3-aminopropyl)-cyclopentanecarboxylic acid hydrochloride]

Compound	IC50 [nM]
NCCCC1(C(=O)O)CCCC1S (single isomer, unassigned) [Example 6, 1-(3-Aminopropyl)-2-mercaptocyclopentanecarboxylic acid trifluoroacetate (racemic cis diastereoisomer)]	14 ± 2

Reference: patent US8309341B2, “2-mercaptocyclopentanecarboxylic acid compounds, a process for their preparation and pharmaceutical compositions containing them” (Les Laboratories Server, priority 2009, dated 2012)
